The values below come from ChEMBL document CHEMBL1201862, “PubChem BioAssay data set” (2004).

Some test systems named below: SR; SK-MEL-5; A498; OVCAR-3; NCI-H226; COLO 205; U-251; NCI-H460; SF-268; HOP-92; OVCAR-4; HCT-15; TK-10; NCI/ADR-RES; HT-29; SW-620; SK-OV-3; HL-60; T47D.
Assay in all cases: DTP human tumour cell line panel, 48 h

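Grown in 96-well plates, cells were treated for 48 hours with each compound at five concentrations. Insufficient inhibition: endpoint recorded as highest concentration tested. GI50 is the concentration that inhibits growth by half.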 Activity calls are given as the source filed them. No stated cut-off is given here; in the data, active = GI50 up to about 1.1 µM and inactive = higher.

For orientation: GI50 means the concentration at which growth is held to half of that of the control. As to `CNC/C(Cl)=N/S(=O)(=O)c1ccc(C)cc1`, the GI50 in the test on SR was 3.84 µM (inactive); in the test with SK-MEL-5, 15 µM (inactive); with A498, 20 µM (inactive); in the test with OVCAR-3, 12.4 µM (inactive); in the test on NCI-H226, 19.5 µM (inactive); with COLO 205, 17.5 µM (inactive). Besides, the GI50 was 6.93 µM (inactive) in the test with U-251; 8.17 µM (inactive) with NCI-H460; 19.5 µM (inactive) with SF-268; 14.8 µM (inactive) in the test with HOP-92; 10 µM (inactive) in the test on OVCAR-4; 16.1 µM with HCT-15. Besides, the GI50 was 12.7 µM (inactive) with TK-10; 26.1 µM (inactive) in the test with NCI/ADR-RES; 19.2 µM (inactive) in the test with HT-29; 9.16 µM (inactive) in the test with SW-620; 22.8 µM (inactive) in the test on SK-OV-3.

Regarding `COc1ccc(C(CC(=O)C(C)(C)CN2CCCCC2)SCCS(=O)(=O)O)cc1` (configuration not stated), the GI50 with SR is 14.3 µM (inactive); with SK-MEL-5 it was 20.9 µM (inactive); with A498, 26.2 µM (inactive); in the test on OVCAR-3, 12.8 µM (inactive); in the test on NCI-H226 it was 21.9 µM (inactive); with COLO 205, 28.4 µM (inactive). The GI50 is 62.1 µM (inactive) with U-251; 22.6 µM (inactive) in the test on NCI-H460; 41.4 µM (inactive) in the test with HL-60; 17.8 µM (inactive) with HOP-92; 34 µM (inactive) with OVCAR-4; 34.2 µM in the test with HCT-15. Also, the GI50 with TK-10 is 45.7 µM (inactive); with NCI/ADR-RES, 35.4 µM (inactive); in the test on HT-29, 26.2 µM (inactive); in the test on SW-620, 32.6 µM (inactive); in the test on SK-OV-3, 60.7 µM (inactive).

With `C/C=C(/CBr)CCC(Br)C(C)(C)Cl.C/C=C(\CBr)CCC(Br)C(C)(C)Cl` (configuration not stated), the GI50 with SK-MEL-5, with A498, with T47D, with OVCAR-3, in the test on NCI-H226 and in the test with COLO 205 was > 10 µM (inactive) throughout. For the same molecule, the GI50 was > 10 µM (inactive) with U-251; > 10 µM (inactive) with NCI-H460; > 10 µM (inactive) in the test with SF-268; > 10 µM (inactive) in the test on HOP-92; > 10 µM (inactive) with OVCAR-4; greater than 10 µM in the test with HCT-15. For the same molecule, the GI50 in the test with TK-10, with NCI/ADR-RES, in the test on HT-29, in the test on SW-620 and with SK-OV-3 was > 10 µM (inactive) in each case.

As to `CC1=CC2=C(C(N)=O)C(=O)OC2(C)C(c2ccccc2)C1` (configuration not stated), the GI50 in the test with SR, in the test on A498, with OVCAR-3, in the test on NCI-H226, in the test on U-251 and with NCI-H460 was > 100 µM (inactive) each time. Besides, the GI50 was > 100 µM (inactive) with SF-268; > 100 µM (inactive) in the test with HL-60; > 100 µM (inactive) in the test on HOP-92; > 100 µM (inactive) in the test with OVCAR-4; greater than 100 µM with HCT-15; > 100 µM (inactive) with TK-10. The GI50 in the test with NCI/ADR-RES, with HT-29, with SW-620 and in the test on SK-OV-3 was > 100 µM (inactive) each time.

For `CC1OC(OC2C(OC(=O)[C@@H]3CC(C)(C)C[C@@H]4C5=CC[C@@H]6[C@@]7(C)C[C@H](O)[C@H](OC8OC(CO)C(O)C(O)C8O)[C@@](C)(CO)C7[C@H](O)C[C@@]6(C)[C@]5(C)C[C@@H](O)[C@H]43)OCC(O)C2O)C(O)C(O)C1O` (some centres not stated), the GI50 was > 15 µM (inactive) in the test on SK-MEL-5; > 15 µM (inactive) in the test with T47D; > 15 µM (inactive) in the test on OVCAR-3; > 15 µM (inactive) in the test on NCI-H226; 6.28 µM (inactive) in the test with COLO 205; > 15 µM (inactive) with U-251. In addition, the GI50 in the test with NCI-H460 was > 15 µM (inactive); in the test with SF-268 it was > 15 µM (inactive); with HL-60, > 15 µM (inactive); in the test on HOP-92 it was > 15 µM (inactive); with OVCAR-4 it was 12.9 µM (inactive); in the test with HCT-15, greater than 15 µM. For the same molecule, the GI50 in the test on TK-10 is > 15 µM (inactive); in the test with NCI/ADR-RES, > 15 µM (inactive); with HT-29 it was 11.5 µM (inactive); in the test with SW-620 it was > 15 µM (inactive); in the test with SK-OV-3 it was > 15 µM (inactive).

Turning to `CCOC(=O)C1=COC(C)(CCc2ccccc2)CC1=O` (configuration not stated), the GI50 in the test with SK-MEL-5 is 94 µM (inactive); in the test on A498, > 100 µM (inactive); in the test with T47D it was 47.2 µM (inactive); with OVCAR-3, 80.2 µM (inactive); in the test with COLO 205 it was > 100 µM (inactive); with U-251, 41.3 µM (inactive). For the same molecule, the GI50 in the test with NCI-H460 is 92.5 µM (inactive); in the test on SF-268, > 100 µM (inactive); in the test with OVCAR-4, > 100 µM (inactive); in the test on HCT-15, greater than 100 µM; in the test on TK-10, > 100 µM (inactive); in the test on NCI/ADR-RES it was > 100 µM (inactive). Besides, the GI50 with HT-29 is 56.2 µM (inactive); in the test with SW-620 it was > 100 µM (inactive); with SK-OV-3 it was > 100 µM (inactive).

`CCOC(=O)c1c2cccccc2n2c(=O)cc(C)nc12`: the GI50 in the test with SR, in the test on A498, in the test with OVCAR-3, in the test with NCI-H226, with COLO 205 and with U-251 was > 100 µM (inactive) in each case. Besides, the GI50 in the test on NCI-H460 was > 100 µM (inactive); in the test with SF-268, 69.8 µM (inactive); in the test with HL-60, > 100 µM (inactive); with OVCAR-4, > 100 µM (inactive); in the test on HCT-15, greater than 100 µM; with TK-10 it was > 100 µM (inactive). In addition, the GI50 in the test with HT-29 and in the test with SW-620 was > 100 µM (inactive) each time.

Take `C=CC(=O)N1C/C(=C\c2ccc(N(C)C)cc2)C(=O)/C(=C/c2ccc(N(C)C)cc2)C1`: the GI50 in the test on SK-MEL-5 is > 100 µM (inactive); in the test with A498, > 100 µM (inactive); in the test with T47D, > 100 µM (inactive); in the test with OVCAR-3 it was 41.3 µM (inactive); in the test with NCI-H226 it was > 100 µM (inactive); in the test with COLO 205, > 100 µM (inactive). In addition, the GI50 with U-251 was > 100 µM (inactive); with NCI-H460, > 100 µM (inactive); in the test on SF-268, 67.3 µM (inactive); in the test on HOP-92 it was > 100 µM (inactive); in the test with OVCAR-4, > 100 µM (inactive); with HCT-15, 18.2 µM. The GI50 in the test with TK-10 is > 100 µM (inactive); in the test on NCI/ADR-RES it was > 100 µM (inactive); in the test with HT-29 it was 10.4 µM (inactive); with SW-620 it was 40.8 µM (inactive).

As to `Clc1ccc(OCc2nnc(CCCCCCCCc3nnc(COc4ccc(Cl)cc4Cl)o3)o2)c(Cl)c1`, the GI50 in the test on SK-MEL-5 is > 100 µM (inactive); in the test with A498, > 100 µM (inactive); with NCI-H226 it was > 100 µM (inactive); in the test with COLO 205, > 100 µM (inactive); with U-251 it was > 100 µM (inactive); with NCI-H460, 79.6 µM (inactive). Also, the GI50 was 42 µM (inactive) with SF-268; 41.1 µM (inactive) in the test on HOP-92; 92.9 µM (inactive) with OVCAR-4; 97.5 µM with HCT-15; > 100 µM (inactive) in the test on TK-10; 76.6 µM (inactive) in the test with NCI/ADR-RES. Also, the GI50 with HT-29, with SW-620 and with SK-OV-3 was > 100 µM (inactive) throughout.

Turning to `CC(=O)c1c(C)n(C)c2c1nnc1ccccc12`, the GI50 in the test with SK-MEL-5 was 32 µM (inactive); in the test on A498, 21.1 µM (inactive); in the test with T47D it was > 100 µM (inactive); in the test with OVCAR-3, > 100 µM (inactive); in the test with NCI-H226 it was 31.6 µM (inactive); in the test with COLO 205, 30.9 µM (inactive). Also, the GI50 in the test on U-251 was 49.4 µM (inactive); with NCI-H460, 25.7 µM (inactive); in the test on SF-268 it was 34.1 µM (inactive); with HOP-92 it was 43.9 µM (inactive); in the test on OVCAR-4 it was > 100 µM (inactive); in the test with HCT-15, 42.1 µM. In addition, the GI50 is 29.4 µM (inactive) in the test with TK-10; 46.5 µM (inactive) in the test on NCI/ADR-RES; 34.1 µM (inactive) in the test with HT-29; 44.5 µM (inactive) in the test with SW-620; 32.8 µM (inactive) in the test with SK-OV-3.

`CCC[C@@H]1C(=O)N=C(N)N1C(=O)OCc1ccccc1`: the GI50 with SR, in the test with SK-MEL-5, in the test with A498, in the test on OVCAR-3, with NCI-H226 and in the test with COLO 205 was > 100 µM (inactive) throughout. The GI50 in the test on U-251 is > 100 µM (inactive); in the test on NCI-H460 it was > 100 µM (inactive); with SF-268, > 100 µM (inactive); with HL-60, > 100 µM (inactive); in the test on OVCAR-4 it was > 100 µM (inactive); in the test with HCT-15, greater than 100 µM. Further, the GI50 in the test with TK-10, in the test with NCI/ADR-RES, with HT-29 and in the test on SW-620 was > 100 µM (inactive) each time.

Take `COc1c(C)c(C/C=C(\C)CC/C=C(\C)CC/C=C(\C)CC/C=C(\C)CCC=C(C)C)c(OC)c(OC)c1OC`: the GI50 in the test with SR is 22.9 µM (inactive); in the test with SK-MEL-5, 16.7 µM (inactive); in the test with OVCAR-3, > 100 µM (inactive); with COLO 205 it was > 100 µM (inactive); in the test on U-251, 79.6 µM (inactive); in the test on NCI-H460 it was 8.81 µM (inactive). The GI50 in the test with SF-268 was 18.6 µM (inactive); in the test on HOP-92, 15.6 µM (inactive); in the test on OVCAR-4, 19.9 µM (inactive); in the test with HCT-15, 92 µM; in the test with TK-10 it was 24 µM (inactive); with NCI/ADR-RES, 25 µM (inactive). Further, the results for the GI50 with HT-29, in the test with SW-620 and in the test on SK-OV-3 were 88.3 µM (inactive), 97.7 µM (inactive) and > 100 µM (inactive), respectively.
